The text below walks through data of US11738062B2, “Herbal medicine extracts and uses and methods of preparation thereof” (ALPHA OASIS LLC, priority 2018, dated 2023).

For the experiment, the system named is collagen-induced arthritis DBA/1J mouse model. Kind of experiment: murine model of collagen-induced arthritis, Arthritic Index (AI) scoring. The experiment is classed as in vivo. The conditions noted are these: #4 and #10 100 μL topical patch, ENBREL 3 mg/kg subcutaneous.

For ENBREL®, the “rate of disease progression (overall arthritis severity, FIG. 2)” value (14 days of daily treatment) is “swiftly arrested”. Under “after 14 days of daily treatment, compared to Group 2 (diseased, vegetable oil)”, the “reduction in arthritis severity score (AI)” value is 71%.
